According to patent US20250186319A1, “ANAPLEROTIC COMPOSITIONS AND USES THEREOF” (EXCELLA BIOSCIENTIFIC LTD, priority 2021, published 2025):
In brackets after ≈: the same amount, converted by molar mass. Read-outs that look alike come from different tables or passages of the source.

What was measured:
P. acnes = experiment: MIC/MBC against P. acnes by microdilution method; format: cell-based; conditions: for MIC: Cutibacterium acnes; for MBC: TriAza batches and their soaps
Excerpt: TriAza was designed as a pro-drug of azelaic acid, a known antibacterial agent, for the treatment of skin disorders associated with pathogenic propagation of bacteria. For example, the development of Acne vulgaris is tightly associated with extensive accumulation of P. acnes in the sebaceous gland, a milieu of the disease. To determine the antibacterial activity of TriAza against P. acnes, we tested the minimal bactericidal concentration (MBC) of TriAza. The effect of TriAza was compared to the MBC of azelaic acid and benzoyl peroxide (BPO), two main competitors used in the treatment of acne.
To compare the antimicrobial activities of various batches of TriAza we determined MIC of number of batches that were prepared with non-principal modifications. Selected batches were labeled as TriAza −3, TriAza −6, TriAza −7 and TriAza −19 and supplied to the growth medium of P. acnes. A, minimal inhibitory concentration of the batches was monitored and compared to each other. […] For further analysis, batch TriAza −19 was chosen as a batch containing the minimal amount of pelargonic acid.
Since TriAza is designed for marketing as a soap, we decided to define an antibacterial activity of its soap. […] It should be stressed that despite the decreased activity of TriAza soap it is still higher than that of azelaic acid (Table 1 and 2).
Example 12: Microbiome balance effect: Selection of methods for QC-quality control-Functional Potency. Testing minimal inhibitory concentration (MIC) to P. acnes was executed by microdilution method. TriAza based biocontrol, microbial preservation. P. acnes after double passage on Chocolate plates (Novamed) were grown bacteria in anaerobic conditions at 37° C. for 1-2 days. The bacteria were Gram stained and the proper morphology of the bacteria was assured. Then, bacteria were resuspended in Thioglycolate medium (HyLabs) at concentration of 0.02 O.D.600. Meanwhile, ELISA plates containing at the first raw 200 μl of undiluted tested material were prepared. The rest wells were filled with 100 μl of Thioglycolate medium and 11 serial […] by transferring 100 μl of undiluted material was performed. Once the ELISA plate was ready, 100 μl of prepared bacterial culture was added. Bacteria alone and medium w/o bacteria were used as standard controls. The plates were incubated in anaerobic conditions at 37° C. for 2 days. Minimal inhibitory concentration was determined visually and spectrophotometrically, while minimal bactericidal concentration was determined after plating of the bacteria on solid medium (Chocolate plates). On the plates bacteria were incubated in anaerobic conditions at 37° C. for 2 days and the number of appearing colonies were counted manually. Specification for positive functional potency for batch acceptance for the TriAza batches tested are selected in range of antimicrobial activity-MIC between 0,25-1 mM.
P. acnes after double passage on Chocolate plates (Novamed) were grown in anaerobic conditions at 37° C. for 1-2 days. The bacteria were Gram stained and the proper morphology of the bacteria was assured. Then, bacteria were resuspend in Thioglycolate medium
(HyLabs) at concentration of 0.02 O.D.600. Meanwhile, ELISA plates containing at the first raw undiluted tested material were prepared. The rest wells were filled with 100 μl of Thioglycolate medium and 11 serial ½ dilutions by transferring 100 ul of undiluted material was performed. Once the ELISA plate was ready, 100 ul of prepared bacterial culture was added. Bacteria alone and medium w/o bacteria were used as standard controls. The plates were incubated in anaerobic conditions at 37° C. for 2 days. Minimal inhibitory concentration was determined visually and spectrophotometrically, while minimal bactericidal concentration was determined after plating of the bacteria on solid medium (Chocolate plates). […]

lipase from P. cepacia = molecular target: T1, lipase from P. cepacia (Burkholderia cepacia, UniProt P22088); experiment: Bacterial lipase hydrolysis of TriAza, azelaic acid production by TLC; format: biochemical; conditions: increasing enzyme amounts, 37° C.
T1 construct: purchased
Procedure: To determine the affinity of a bacterial lipase to the active ingredient according to the embodiments of the invention, the ability of the lipase to utilize TriAza as a substrate was tested. For this purpose, the commercially available lipase from P. cepacian was used. Increasing amounts of the enzyme were mixed with a fixed concentration of the substrate, and incubated for a few hours at 37° C. The enzymatic activity was monitored by TLC, by registering the production of azelaic acid.
(§1) Pure pro-drug activity of designed molecules implies their high specificity towards the target enzyme. TriAza represents the glycerol ester of a specific fatty acid that might be recognized by a mammalian esterase or other triglyceride-utilizing lipase. To establish specificity of bacterial lipase to TriAza, the lipase activity from P. cepacia to that of mammalian esterase and phospholipase A2 were compared. […] The extents of enzyme activities were registered according to the level of generation of azelaic acid.

[1] = tested on: P. acnes-associated lipase; experiment: P. acnes-associated lipase activity in live culture, release of azelaic acid (TLC); format: cell-based; conditions: day 1 and day 5
Procedure: The activity of C. acnes-associated and P. acnes-associated lipase was tested in the presence of triolein (a trigger of lipase activity). Bacteria was grown for 4 days in liquid medium. P. acnes after double passage on Chocolate plates (Novamed) were grown bacteria in anaerobic conditions at 37° C. for 1-2 days. The bacteria were Gram stained, and the proper morphology of the bacteria was assured. Then, 1 O.D. 600 bacteria were resuspended in 1 ml of Thioglycolate medium (HyLabs) containing 50 μl triolein and grown in anaerobic conditions at 37° C. for 4 days. Following this incubation, 100 μl of emulsified substrate was added to the culture that was further maintained at 37° C. for overnight. Afterwards, the supernatant was separated from the bacteria by 1 min centrifugation at 10000 rpm and subjected to lipid extraction using clorophorm: methanol (2:1). The lipids after nitrogen evaporation and resuspension in clorophorm: methanol (2:1) were separated on silica TLC plates in a development solution of clorophorm: methanol: water (65:25:4), and visualized with BromCresol Green (Sigma).

[2] = Subjective evaluation of skin aged appearance in volunteers; format: in vivo, human; conditions: scale −3 to 3; three volunteers; after month of use
Procedure: Method of subjective qualitative evaluation of skin whitening and smoothening at the test site and improvement in fine lines is evaluated subjectively by the investigator and/or by the subjects in accordance with the following scoring pattern:−3=marked deterioration;−2=moderate, visibly uneven deterioration;−1=slight deterioration; 0=no perceptible change or improvement; 1=slight change or improvement; 2=moderate change or improvement (whitening; perceptible and visible change, with less than 50% lightening of skin color); 3=marked or improvement remarkable change or improvement (whitening; very visible change with even and uniform skin whitening covering more than 80% of the contact area). Three study volunteers used TriAza for reduction of skin “aged appearance”-all three after month of use reported 2-3 scale of appearance improvement.

phospholipase A2 = experiment: Specificity: hydrolysis of TriAza by phospholipase A2; format: biochemical; conditions: equally active enzyme amounts, fixed TriAza concentration
Excerpt: as §1

mammalian esterase = experiment: Specificity: hydrolysis of TriAza by esterase; format: biochemical; conditions: equally active enzyme amounts, fixed TriAza concentration
Excerpt: as §1

[3] = tested on: Candida albicans (C. albicans); experiment: MIC/MBC against C. albicans; format: cell-based
Excerpt: (§2) For this purpose, we selected a few major skin pathogens and tested their sensitivity to TriAza. We chose Staphylococcus aureus (S. aureus) and Candida albicans (C. albicans), representing bacterial and fungal genera, respectively. Both organisms' express lipase. The bacteria and fungi were exposed to various concentrations of TriAza −19 and its sodium salt, and both the MICs and MBCs of the agents were statistically determined. […] The slight difference in MICs of TriAza against the tested organisms can stem from the difference in their lipase activity.

[4] = tested on: Staphylococcus aureus (S. aureus); experiment: MIC/MBC against S. aureus; format: cell-based
Excerpt: as §2

S. aureus = S. aureus spiked contamination screen of natural preservatives in chocolate spread; format: cell-based; parameters: unit not given here
Excerpt: In addition, even MCT, and derivatives are screened as useful natural preservatives of the composition, GML-glycerol monolaurate is selected as an adjunctive multifunctional natural preservative to MOCL based composition.

[5] = TriAza value is batch #5, MIC of L-PABS equals its MBC, read-out: MIC

T1 sequence (P22088 45-364): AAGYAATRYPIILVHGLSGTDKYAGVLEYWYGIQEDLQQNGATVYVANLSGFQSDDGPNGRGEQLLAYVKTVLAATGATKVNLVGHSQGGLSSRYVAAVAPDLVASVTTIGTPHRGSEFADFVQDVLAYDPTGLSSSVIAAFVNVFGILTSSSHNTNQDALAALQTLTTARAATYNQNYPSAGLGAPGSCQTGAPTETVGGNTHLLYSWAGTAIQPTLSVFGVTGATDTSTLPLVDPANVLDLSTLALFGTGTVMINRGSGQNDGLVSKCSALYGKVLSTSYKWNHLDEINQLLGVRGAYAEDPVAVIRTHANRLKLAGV

Structure (SMILES): O=C(O)CCCCCCCC(=O)O [Azelaic acid, reference compound]
- MIC (P. acnes; [5]): 3750 µg/mL

Structure (SMILES): O=C(OOC(=O)c1ccccc1)c1ccccc1 [BPO, benzoyl peroxide, reference compound]
- MIC (P. acnes; [5]): 500 µg/mL

Structure (SMILES): O=C(O)CCCCCCCC(=O)OCC(COC(=O)CCCCCCCC(=O)O)OC(=O)CCCCCCCC(=O)O [TriAza, Glycerol triazelate]
- MIC (P. acnes; [5]): 1950 µg/mL
- MIC (P. acnes; batch VA4-1, with surfactant or emulsifier, read-out: MIC bacteriostatic activity, concentration sufficient to stop growth): 1000 µM
- activity of TriAza relative to Azelaic acid (P. acnes; stronger than Azelaic acid): 2 fold
- utilization as substrate, accumulation of azelaic acid (lipase from P. cepacia): could be utilized as a substrate for bacterial lipase activity
- time-dependent release of azelaic acid [1]: maximum lipase hydrolysis on day 5
- appearance improvement score [2]: 2-3
- generation of azelaic acid by phospholipase A2 (phospholipase A2): neither esterase nor phospholipase A2 could produce azelaic acid
- generation of azelaic acid by esterase (mammalian esterase): neither esterase nor phospholipase A2 could produce azelaic acid

Structure (SMILES): O=C(O)CCCCCCCC(=O)OCC(COC(=O)CCCCCCCC(=O)O)OC(=O)CCCCCCCC(=O)O [TriAza-3]
- MBC (P. acnes): 1000 µg/mL (≈ 1.66 mM)

Structure (SMILES): O=C(O)CCCCCCCC(=O)OCC(COC(=O)CCCCCCCC(=O)O)OC(=O)CCCCCCCC(=O)O [TriAza-6]
- MBC (P. acnes): 2800 µg/mL (≈ 4.65 mM)

Structure (SMILES): O=C(O)CCCCCCCC(=O)OCC(COC(=O)CCCCCCCC(=O)O)OC(=O)CCCCCCCC(=O)O [TriAza-7]
- MBC (P. acnes): 2000 µg/mL (≈ 3.32 mM)

Structure (SMILES): O=C(O)CCCCCCCC(=O)OCC(COC(=O)CCCCCCCC(=O)O)OC(=O)CCCCCCCC(=O)O [TriAza-19]
- MBC (P. acnes): 1000 µg/mL (≈ 1.66 mM)
- MBC [3]: 24000 µg/mL (≈ 39.8 mM)
- MIC [3]: 20000 µg/mL (≈ 33.2 mM)
- MBC [4]: 10000 µg/mL (≈ 16.6 mM)
- MIC [4]: 5000 µg/mL (≈ 8.3 mM)

Structure (SMILES): CCCCCCCCC(=O)OCC(COC(=O)CCCCCCCC)OC(=O)CCCCCCCC [tripelargonin]
- MIC (S. aureus): 23
